In patent US7504382B2 (priority 2003, dated 2009):
Converted amounts (≈) assume the structure as drawn. Square brackets hold non-standard residues; d marks the D form. Peptide text beside a SMILES is read from it. * marks the point of attachment. ξ: configuration not given here. ξE = NC(CCC(=O)O)C(=O)O; Cbz = O=C(OCc1ccccc1)*; CH2F = FC*

Key:
[1] = test system: SARS-CoV infected Vero 76 cells; format: cell-based; conditions: for EC50 (protection from virus-induced cell death): SARS-CoV infected Vero 76 cells, 72 h, neutral red; for SI value: from TC50 and EC50, indication of potential therapeutical index
[2] = test system: SARS-CoV infected Vero-cells; format: cell-based; conditions: concentration of 1 μM
[3] = test system: uninfected Vero 76 cells
[4] = test system: Vero-cells

SMILES	EC50 (protection from virus-induced cell death) [1] [µg/mL]	SI value [1]	inhibition of the cytopathic effect (CPE) of SARS-CoV [2] [%]	TC50 (toxicity of the compound) [3] [µg/mL]	toxicity at the same concentration [4]
CC(C)[C@H](NC(=O)OCc1ccccc1)C(=O)NC(CCC(=O)N(C)C)C(=O)CF (stereo partly drawn) [Example 24, 4-(Cbz-Val-Amido)-6-Fluoro-5-Oxo-Hexanoic Acid Dimethylamide] (Cbz-Val-[ξE](NMe2)-CH2F)	0.02 (≈ 0.0472 µM)	> 500	100	> 10	no toxicity was observed
CNC(=O)CCC(NC(=O)[C@H](CC(C)C)NC(=O)OCc1ccccc1)C(=O)CF (stereo partly drawn) [Example 12, 4-(Cbz-Leu-Amido)-6-Fluoro-5-Oxo-Hexanoic Acid Methylamide] (Cbz-Leu-[ξE](NHMe)-CH2F)			100		no toxicity was observed
CC(C)CC(NC(=O)C(NC(=O)OCc1ccccc1)C(C)C)C(=O)NC(CCC(=O)N(C)C)C(=O)CF (stereo not drawn) [Example 7, 4-(Cbz-Val-Leu-Amido)-6-Fluoro-5-Oxo-Hexanoic Acid Dimethylamide] (Cbz-Val-Leu-Glu(NMe2)-CH2F; configuration not given here)			94.5		no toxicity was observed
CC(C)[C@H](NC(=O)OCc1ccccc1)C(=O)NC(CC(=O)N(C)C)C(=O)CF (stereo partly drawn) [Example 17, 3-(Cbz-Val-Amido)-5-Fluoro-4-Oxo-Pentanoic Acid Dimethylamide]	2.1 (≈ 5.13 µM)	> 24		> 50	
